# Results taken from US20240376432A1, “METHOD FOR PREPARING PLURIPOTENT STEM CELL-DERIVED HEMATOPOIETIC STEM CELL AND METHOD FOR CONSTRUCTING HUMANIZED MOUSE MODEL BY USING HEMATOPOIETIC STEM CELL THUS PREPARED” (SUNGKWANG MEDICAL FOUNDATION, priority 2021, published 2024).
# Tested on: human pluripotent stem cells (hPSCs)
# Assay: Differentiation of human pluripotent stem cells into hematopoietic stem cells, proportion of CD34+CD45+ cells by FACS
# Assay type: cell-based
# Method: Specific experiments on the method of preparing human hematopoietic stem cells were performed as follows. First, isolated human pluripotent stem cells (hPSCs) were maintained in stemMACS-IPS brew medium for 2 days. The differentiation base culture medium consisted of the following composition: Stempro 34-SFM (+stempro sup)+200 ug/ml of human Transferrin +2 mM of L-glutamine+0.5 mM of L-ascorbic acid+0.45 mM of MTG (1-thioglycerol) +1% of penicillin/streptomycin. To induce mesodermfrom the isolated hPSCs, treatment was performed with CHIR99021 (5 uM) alone, a representative example of a GSK inhibitor, for about 2 days. Next, treatment was performed with 50 ng/ml of BMP4, 50 ng/ml of VEGF, and 100 ng/ml of bFGF for 2 days to induce hemangioblasts. Next, 50 ng/ml of VEGF, 50 ng/ml of bFGF, and SB-431542 (10 μM) as representative examples of TGF-beta inhibitors and 1 μM of retinoic acid (RA) were added and cultured for about 1 day, and 0.1% (w/v) of PVA, 50 ng/ml of stem cell factor (SCF), and 10 ng/ml of bFGF were added and cultured for about 11 days (FIG. 2).
# Specifically, it is widely known that vascular endothelial growth factor (VEGF) may be used to induce mesoderm and induce and maintain hemangioblasts (precursors of HSCs), and has been mainly used during the period of inducing hematopoietic stem cells. Therefore, to determine what effect it will have on the final hematopoietic stem cell generation efficiency when VEGF is excluded from the induction of hematopoietic stem cells, the results of hematopoietic stem cell differentiation according to the presence or absence of VEGF (10 ng/ml) were confirmed under the same conditions (50 ng/ml of SCF, 10 ng/ml of bFGF, 20 ng/ml of IL-3 and 10 ng/ml of IL-6) (FIG. 3A).
# To confirm the differentiation results, Fluorescence Activated Cell Sorting (FACS) was performed to confirm the proportion of CD34^+CD45^+ cells. […] After washing away the remaining antibodies with staining buffer, 200 μl of staining buffer was added again and analyzed using a flow cytometer.
# Specifically, in the existing method, treatment was performed with bone morphogenetic protein 4 (BMP4), VEGF, and CHIR99021 to induce mesoderm. However, it was determined that the above conditions were not compatible with the sequence of the process for differentiating stem cells into hematopoietic stem cells. […]
# For this purpose, the efficiency of hematopoietic stem cell differentiation when treated with SB-431542 (SB4), a representative example of a TGF-beta inhibitor, in addition to VEGF and basic fibroblast growth factor (bFGF) for various periods of time, was determined (FIG. 5A). […]
compound,measurement,setting,value
"Cc1cnc(-c2cnc(NCCNc3ccc(C#N)cn3)nc2-c2ccc(Cl)cc2Cl)[nH]1 [CHIR99021, 6-[[2-[[4-(2,4-Dichlorophenyl)-5-(5-methyl-1H-imidazol-2-yl)-2-pyrimidinyl]amino]ethyl]amino]-3-pyridinecarbonitrile]",ratio of CD34+CD45+ cells,"CHIR99021 alone in mesoderm induction, compared with BMP4 (5 ng/ml), VEGF (50 ng/ml) and CHIR99021, FIG. 4B",significantly superior
NC(=O)c1ccc(-c2nc(-c3ccc4c(c3)OCO4)c(-c3ccccn3)[nH]2)cc1 [SB4],hematopoietic stem cell differentiation efficiency,"EHT induction, SB4 for a long period of time in addition to VEGF and bFGF, FIG. 5B",significantly reduced
same,proportion of CD34+CD45+ cells,"EHT induction, SB4 for less than 24 hours in addition to VEGF and bFGF, FIG. 5B",significantly superior
VEGF,ratio of CD34+CD45+ cells,"VEGF (10 ng/ml) present or absent during hematopoietic stem cell induction, with 50 ng/ml SCF, 10 ng/ml bFGF, 20 ng/ml IL-3, 10 ng/ml IL-6, FIG. 3B",excluding VEGF from the induction of hematopoietic stem cells was significantly superior
